We go through 15 compounds from PubChem BioAssay AID280 (DTP/NCI, 2004).

The test system of this assay is nude mice, LOX melanoma ip, survival T/C. As to the kind of experiment: NCI In Vivo Anticancer Drug Screen. Data for tumor model Human Amelanotic Melanoma (LOX) (intraperitoneal) in NU/NU BALB/C (nude) mice. Conditions: endpoint: median survival time, higher = longer survival. On the procedure: The antitumor activity of compounds was measured in mice bearing transplantable tumors. Survival or tumor size were measured and the results are expressed as the measurement made in the treated group (T) divided by the measurement made in the vehicle treated control group (C). The tumor model used in this assay is Human Amelanotic Melanoma (LOX) (intraperitoneal) in NU/NU BALB/C (nude) mice

Setting [1] is: dose: 75.0 mg/kg/injection, schedule: Q04DX003 (ip), vehicle: saline with Tween-80.
[2] abbreviates: dose: 37.5 mg/kg/injection, schedule: Q04DX003 (ip), vehicle: water.
The mark [3] stands for this setting: dose: 75.0 mg/kg/injection, schedule: Q04DX003 (ip), vehicle: water.
Setting [4] is: dose: 150.0 mg/kg/injection, schedule: Q04DX003 (ip), vehicle: water.
The mark [5] stands for this setting: dose: 50.0 mg/kg/injection, schedule: Q04DX003 (ip), vehicle: saline with Tween-80.
Where [6] appears, read: dose: 100.0 mg/kg/injection, schedule: Q04DX003 (ip), vehicle: saline with Tween-80.
Where [7] appears, read: dose: 200.0 mg/kg/injection, schedule: Q04DX003 (ip), vehicle: saline with Tween-80.
Setting [8] is: dose: 75.0 mg/kg/injection, schedule: Q04DX003 (ip), vehicle: suspension in saline.
[9] abbreviates: dose: 150.0 mg/kg/injection, schedule: Q04DX003 (ip), vehicle: suspension in saline.
Setting [10] is: dose: 300.0 mg/kg/injection, schedule: Q04DX003 (ip), vehicle: suspension in saline.
Where [11] appears, read: dose: 600.0 mg/kg/injection, schedule: Q04DX003 (ip), vehicle: suspension in saline.

Several values for one entry are separate records, joined by “and”; a condition that tells them apart may be missing. Equal values may be shown once. Toxic doses and inconclusive results are not listed.

In the case of `CN(C)CCC(=O)C(=Cc1ccc(O)cc1)C(=O)CCN(C)C`, the T/C by setting is: (dose: 18.75 mg/kg/injection, schedule: Q04DX003 (ip), vehicle: saline) 100 % of control; (dose: 37.5 mg/kg/injection, schedule: Q04DX003 (ip), vehicle: saline) 101 % of control; (dose: 75.0 mg/kg/injection, schedule: Q04DX003 (ip), vehicle: saline) 112 % of control; (dose: 150.0 mg/kg/injection, schedule: Q04DX003 (ip), vehicle: saline) 107 % of control; (dose: 300.0 mg/kg/injection, schedule: Q04DX003 (ip), vehicle: saline) 103 % of control.

Take `CC1(O)C=CC(=O)C=C1`: the T/C (dose: 6.25 mg/kg/injection, schedule: Q04DX003 (ip), vehicle: water) was 108 % of control; the T/C (dose: 12.5 mg/kg/injection, schedule: Q04DX003 (ip), vehicle: water) was 101 % of control; the T/C (dose: 25.0 mg/kg/injection, schedule: Q04DX003 (ip), vehicle: water) is 105 % of control; the T/C (dose: 50.0 mg/kg/injection, schedule: Q04DX003 (ip), vehicle: water) was 111 % of control.

As to `O=c1cc(-c2ccccc2)[nH]c2c1CCCC2`, the T/C under setting [1] was 115 % of control; the T/C (dose: 150.0 mg/kg/injection, schedule: Q04DX003 (ip), vehicle: saline with Tween-80) was 115 % of control; the T/C (dose: 259.0 mg/kg/injection, schedule: Q04DX003 (ip), vehicle: saline with Tween-80) is 106 % of control; the T/C (dose: 300.0 mg/kg/injection, schedule: Q04DX003 (ip), vehicle: saline with Tween-80) was 114 % of control; the T/C (dose: 432.0 mg/kg/injection, schedule: Q04DX003 (ip), vehicle: saline with Tween-80) was 100 % of control; the T/C (dose: 600.0 mg/kg/injection, schedule: Q04DX003 (ip), vehicle: saline with Tween-80) was 124 % of control. Further, the T/C (dose: 720.0 mg/kg/injection, schedule: Q04DX003 (ip), vehicle: saline with Tween-80) was 114 % of control.

Regarding `Cc1c(N)nc([C@H](CC(N)=O)NC[C@H](N)C(N)=O)nc1C(=O)N[C@H](C(=O)N[C@H](C)[C@@H](O)[C@H](C)C(=O)N[C@H](C(=O)NCCc1nc(-c2nc(C(=O)NCCC[S+](C)C)cs2)cs1)[C@@H](C)O)C(OC1OC(CO)C(O)C(O)C1OC1OC(CO)C(O)C(OC(N)=O)C1O)c1cnc[nH]1` (some centres not stated), the T/C runs as follows: (dose: 2.0 mg/kg/injection, schedule: Q01DX015 (ip), vehicle: saline) 165 % of control; (dose: 4.0 mg/kg/injection, schedule: Q01DX005 (ip), vehicle: saline) 155 % of control; (dose: 4.0 mg/kg/injection, schedule: Q01DX015 (ip), vehicle: saline) 159 % of control; (dose: 8.0 mg/kg/injection, schedule: Q01DX005 (ip), vehicle: saline) 175 % of control; (dose: 8.0 mg/kg/injection, schedule: Q01DX015 (ip), vehicle: saline) 176 % of control; (dose: 8.0 mg/kg/injection, schedule: Q04DX003 (ip), vehicle: saline) 160 % of control. The T/C (dose: 16.0 mg/kg/injection, schedule: Q01DX015 (ip), vehicle: saline) is 87 % of control; the T/C (dose: 24.0 mg/kg/injection, schedule: Q04DX003 (ip), vehicle: saline) was 110 % of control; the T/C (dose: 32.0 mg/kg/injection, schedule: Q01DX001 (ip), vehicle: saline) is 150 % of control; the T/C (dose: 32.0 mg/kg/injection, schedule: Q01DX005 (ip), vehicle: saline) was 175 % of control; the T/C (dose: 32.0 mg/kg/injection, schedule: Q04DX003 (ip), vehicle: saline) was 176 % of control; the T/C (dose: 36.0 mg/kg/injection, schedule: Q04DX003 (ip), vehicle: saline) is 105 % of control. For the same compound, the T/C runs as follows: (dose: 64.0 mg/kg/injection, schedule: Q01DX001 (ip), vehicle: saline) 151 % of control; (dose: 128.0 mg/kg/injection, schedule: Q01DX001 (ip), vehicle: saline) 150 % of control.

In the case of `Cc1ccc(/C=C/C(=O)/C=C/c2ccc(C)o2)o1`, the T/C is, setting by setting: (dose: 50.0 mg/kg/injection, schedule: Q04DX003 (ip), vehicle: DMSO) 113 % of control; (dose: 100.0 mg/kg/injection, schedule: Q04DX003 (ip), vehicle: DMSO) 102 % of control; (dose: 200.0 mg/kg/injection, schedule: Q04DX003 (ip), vehicle: DMSO) 98 % of control; (dose: 400.0 mg/kg/injection, schedule: Q04DX003 (ip), vehicle: DMSO) 100 % of control; (dose: 800.0 mg/kg/injection, schedule: Q04DX003 (ip), vehicle: DMSO) 106 % of control.

In the case of `O=NNc1ccc2cccnc2n1`, the T/C is, setting by setting: (dose: 9.38 mg/kg/injection, schedule: Q04DX003 (ip), vehicle: water) 99 % of control; (dose: 18.75 mg/kg/injection, schedule: Q04DX003 (ip), vehicle: water) 120 % of control; under setting [2], 157 % of control; under setting [3], 192 % of control; under setting [4], 214 % of control.

With `COc1cc(C2CC(C)(O)Oc3cc4c(cc32)OCO4)cc(OC)c1OC` (configuration not stated), the T/C under setting [5] was 109 % of control and 98 % of control; the T/C under setting [6] is 96 % of control; the T/C under setting [7] was 93 % of control.

For `CN(C)C(=O)Nc1ccc(Cl)cc1`, the T/C is 118 % of control under setting [8], 102 % of control under setting [9], 102 % of control under setting [10] and 102 % of control under setting [11].

For the compound `COc1ccc(OC)c(Cc2cnc3nc(N)nc(N)c3c2C)c1`, the T/C reads like this: (dose: 7.5 mg/kg/injection, schedule: Q04DX003 (ip), vehicle: water) 99 % of control; (dose: 15.0 mg/kg/injection, schedule: Q04DX003 (ip), vehicle: water) 105 % of control; (dose: 30.0 mg/kg/injection, schedule: Q04DX003 (ip), vehicle: water) 101 % of control; under setting [2], 91 % of control; (dose: 60.0 mg/kg/injection, schedule: Q04DX003 (ip), vehicle: water) 107 % of control; under setting [3], 88 % of control.

Take `CC(=O)c1cccc(NC2C(N)C(NC(=O)N(C)C)(C(C)O)C(C)(O)C2(O)COC(=O)c2c(C)cccc2O)c1` (configuration not stated): the T/C (dose: 12.5 mg/kg/injection, schedule: Q04DX003 (ip), vehicle: suspension in saline) was 173 % of control.

As for `NC(Cn1ccc(=O)c(O)c1)C(=O)O` (configuration not stated), the T/C was 105 % of control under setting [8]; 105 % of control under setting [9]; 109 % of control under setting [10]; 100 % of control under setting [11]; 104 % of control (dose: 1200.0 mg/kg/injection, schedule: Q04DX003 (ip), vehicle: suspension in saline).

In the case of `Cc1ccc2nc(-c3ccc4nc(-c5ccc(N=Nc6ccc(-c7nc8ccc(-c9nc%10ccc(C)c(S(=O)(=O)O)c%10s9)cc8s7)cc6)cc5)sc4c3)sc2c1S(=O)(=O)O`, the T/C is 92 % of control under setting [8] and 96 % of control under setting [9].

Regarding `O=C1c2cccc(NCCNCCO)c2C(=O)c2cccc(NCCNCCO)c21`, the T/C was 122 % of control (dose: 4.69 mg/kg/injection, schedule: Q04DX003 (ip), vehicle: suspension in saline) and 120 % of control (dose: 9.38 mg/kg/injection, schedule: Q04DX003 (ip), vehicle: suspension in saline).

Take `O=C1CN(CCN2CC(=O)N(CN3CCOCC3)C(=O)C2)CC(=O)N1CN1CCOCC1`: the T/C (dose: 18.75 mg/kg/injection, schedule: Q04DX003 (ip), vehicle: saline with Tween-80) was 98 % of control; the T/C (dose: 37.5 mg/kg/injection, schedule: Q04DX003 (ip), vehicle: saline with Tween-80) was 120 % of control; the T/C under setting [2] was 88 % of control; the T/C under setting [1] is 108 % of control; the T/C under setting [3] was 102 % of control; the T/C under setting [4] is 101 % of control.

`Cc1nc2c(N)cc(Cl)cc2[nH]1`: the T/C runs as follows: under setting [5], 114 % of control; under setting [6], 112 % of control; under setting [7], 99 % of control.
